Results: US4172894A, “3-Thienyl-3-methyl-4-pentyl-2-pyridyl-ketone” (Laboratories Made, S.A., priority 1977, dated 1979)

Key:
[1] = Acute toxicity in mice, intraperitoneal, deaths counted 48 hours after treatment (Litchfield-Wilcoxon); parameters: species or system Swiss I.C.R. albino mice; details: mouse, in vivo, ip, deaths at 48 hours, Litchfield-Wilcoxon test
Method: Acute toxicity study was made in Swiss I.C.R. albino mice of both sexes of 30±2 g of weight, kept without food for 24 hours prior to the experiment. Ambient temperature and relative humidity were kept constant. The products were administered intraperitoneally, and 48 hours after treatment the number of deaths was counted. Calculation of the lethal dose (LD50) was made by the Litchfield-Wilcoxon test.

Swiss I.C.R. albino mice [2] = test: Thermal analgesia, 55° C. "hot plate" technique in mice; format: in vivo; details: 30 mg/kg, intraperitoneal, 30 minutes before 55° C. hot plate; control 38 ± 4.253
Method: The thermal analgesic effect was studied in Swiss I.C.R. albino mice. The 55° C. "hot plate" technique was used. Batches of 10 mice were made.
The products in study were administered intraperitoneally and after 30 minutes the mice were placed on the "hot plate", note having been made, in seconds, of the time it took them to jump. Batches of control animals were injected with only distilled water.

Swiss I.C.R. albino mice [3] = test: Chemical analgesia, acetic acid writhing technique in mice; format: in vivo; details: 25 mg/kg, intraperitoneal, 30 minutes before 0.25 ml of 1% acetic acid; counted 20 minutes later; control 121.5 ± 7.184
Method: The analgesic effect was studied in Swiss I.C.R. albino mice with the acetic acid writhing technique. Batches of 10 mice were made.
The products in study were administered intraperitoneally, and 30 minutes later 0.25 ml of 1% acetic acid were injected intraperitoneally. A batch of control animals received only the acetic acid. Twenty minutes following administration of the acetic acid, the number of writhes in each mouse is counted.

Compound	LD50 at 48 h [1] [mg/kg]	Jumping time (mean ± S.E.M.) (Swiss I.C.R. albino mice [2]) [see.]	No. of writhes (mean ± S.E.M.) (Swiss I.C.R. albino mice [3])
CCC(=O)O[C@](Cc1ccccc1)(c1ccccc1)[C@H](C)CN(C)C [Dextropropoxyphene, dextropropoxyphene]	140	83.7	62.8
CCCCCc1ccnc(C(=O)c2ccsc2)c1C [Product I, 3-thienyl-3-methyl-4-pentyl-2-pyridyl-ketone]	718	96.7	35.75
